21 compounds from ChEMBL document CHEMBL1147910, “Novel C-5 aminomethyl pyrrolotriazine dual inhibitors of EGFR and HER2 protein tyrosine kinases” (Bioorg Med Chem Lett, 2007) can be followed below.

Structures are written as SMILES. Where only a bound is given, the exact number is not on record here.

Data set [1] in a line: Metabolic stability in mouse liver microsomes at 3 uM in presence of NADPH after 10 min. It counts as ADME, Microsome. Background: Liver microsomes are vesicles of endoplasmic reticulum, rich in cytochrome P450 enzymes.
Data set [2] deals with NCI-N87. Description: Antiproliferative activity against human N87 cells. It counts as functional, cell-based.
The nature of data set [3]: Drug level in BALB/c mouse plasma at 50 mg/kg, po after 4 hrs. It counts as ADME, organism-based. Details: dose 50 mg/kg, route oral.
Data set [4] addresses Receptor tyrosine-protein kinase erbB-2 (Homo sapiens, UniProt P04626). Description: Inhibition of human HER2.
For data set [5], the target named is Epidermal growth factor receptor (Homo sapiens, UniProt P00533).
Epidermal growth factor receptor, sequence (P00533 whole entry): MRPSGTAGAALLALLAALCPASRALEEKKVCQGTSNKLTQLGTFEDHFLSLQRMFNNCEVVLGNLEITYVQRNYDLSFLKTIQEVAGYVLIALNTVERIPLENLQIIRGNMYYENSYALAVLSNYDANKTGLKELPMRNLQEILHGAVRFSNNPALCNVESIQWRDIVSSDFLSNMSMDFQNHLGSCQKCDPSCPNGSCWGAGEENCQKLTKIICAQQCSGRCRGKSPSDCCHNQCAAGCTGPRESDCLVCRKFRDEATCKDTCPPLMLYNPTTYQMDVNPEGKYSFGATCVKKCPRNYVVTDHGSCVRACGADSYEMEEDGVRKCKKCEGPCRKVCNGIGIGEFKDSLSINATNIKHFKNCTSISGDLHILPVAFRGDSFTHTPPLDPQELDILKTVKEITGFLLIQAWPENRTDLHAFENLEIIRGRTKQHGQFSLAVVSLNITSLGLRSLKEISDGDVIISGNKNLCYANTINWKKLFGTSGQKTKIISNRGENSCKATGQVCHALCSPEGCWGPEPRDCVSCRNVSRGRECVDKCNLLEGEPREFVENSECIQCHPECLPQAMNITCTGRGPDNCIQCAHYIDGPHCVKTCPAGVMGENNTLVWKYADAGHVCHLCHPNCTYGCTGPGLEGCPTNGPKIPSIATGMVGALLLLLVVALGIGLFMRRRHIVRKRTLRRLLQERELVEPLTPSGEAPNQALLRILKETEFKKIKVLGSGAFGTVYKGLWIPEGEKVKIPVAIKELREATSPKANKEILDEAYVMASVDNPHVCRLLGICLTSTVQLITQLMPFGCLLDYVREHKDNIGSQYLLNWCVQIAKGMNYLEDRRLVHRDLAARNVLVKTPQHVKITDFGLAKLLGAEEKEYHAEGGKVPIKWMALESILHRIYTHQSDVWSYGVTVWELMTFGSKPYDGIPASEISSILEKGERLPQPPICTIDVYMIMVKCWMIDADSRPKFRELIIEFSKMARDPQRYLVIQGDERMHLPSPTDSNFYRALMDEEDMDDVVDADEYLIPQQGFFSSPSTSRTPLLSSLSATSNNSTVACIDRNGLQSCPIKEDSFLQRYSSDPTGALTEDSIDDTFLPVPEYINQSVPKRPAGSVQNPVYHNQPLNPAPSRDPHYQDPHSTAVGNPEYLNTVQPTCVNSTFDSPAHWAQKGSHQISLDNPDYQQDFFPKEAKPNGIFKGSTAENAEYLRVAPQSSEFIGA
The test system of data set [6] is HT-29. Description: Antiproliferative activity against human HT29 cells.
Data set [7] can be described thus: Volume of distribution at steady state in BALB/c mouse at 10 mg/kg, iv. The data set is classed as ADME, organism-based. Details: dose 10 mg/kg, route intravenous. The note with it: in vivo, read-out: Vss.
Data set [8] is described as follows: Half life in BALB/c mouse at 10 mg/kg, iv. It counts as ADME, organism-based. Details: dose 10 mg/kg, route intravenous. Conditions: in vivo.
Data set [9] is described as follows: Mean residence time in BALB/c mouse at 10 mg/kg, iv. The data set is classed as ADME, organism-based. Details: dose 10 mg/kg, route intravenous. Conditions: in vivo.
A short description of data set [10]: Cmax in BALB/c mouse at 90 mg/kg, po. The note with it: in vivo. Details: dose 90 mg/kg, route oral. The data set is classed as ADME, organism-based.
A short description of data set [11]: Mortality in human N87 cells xenografted athymic mouse at 180 mg/kg, po. It counts as organism-based, NCI-N87. Details: dose 180 mg/kg, route oral. Conditions: in vivo, read-out: Activity. For orientation: Xenograft models place foreign cells or tissue in a host animal.
The test system of data set [12] is NCI-N87. Briefly: Antitumor activity against human N87 cells xenografted in athymic mouse at 90 mg/kg, po twice daily after 14 days. The note with it: 336 h, read-out: TGI.
Data set [13] deals with NCI-N87. Briefly: animal or person. The note with it: Mus musculus, NCI-N87, po, 336 h, read-out: TGI.
Description: (§1) Antitumor activity against human N87 cells xenografted in athymic mouse at 135 mg/kg, po twice daily after 14 days
The nature of data set [14]: AUC in BALB/c mouse at 90 mg/kg, po. Conditions: plasma. It counts as ADME, organism-based. Details: dose 90 mg/kg, route oral.
Data set [15] is described as follows: Aqueous solubility in phosphate buffer at pH 7.5. The data set is classed as physicochemical.
In data set [16] the test system is NCI-N87. Description: animal or person. Conditions: Mus musculus, NCI-N87, po, 336 h, read-out: TGI. This is another data set of the same source.
Description: Antitumor activity against human N87 cells xenografted in athymic mouse at 180 mg/kg, po twice daily after 14 days
The nature of data set [17]: Oral bioavailability in BALB/c mouse at 90 mg/kg, po. It counts as ADME, organism-based. The note with it: in vivo.
The nature of data set [18]: Plasma clearance in BALB/c mouse at 10 mg/kg, iv. Details: dose 10 mg/kg, route intravenous. The data set is classed as ADME, organism-based.
The test system of data set [19] is Plasma. Description: Fraction unbound ligand in BALB/c mouse plasma. It counts as ADME, cell-free.
Data set [20] in a line: Antitumor activity against human GEO cells xenografted in athymic mouse at 90 mg/kg, po twice daily after 14 days. Conditions: 336 h, read-out: TGI.
The test system of data set [21] is NCI-N87. Description: animal or person. Conditions: Mus musculus, NCI-N87, po, 336 h, read-out: TGI. The source holds these as a separate data set.
Description: as §1
Data set [22] in a line: Aqueous solubility at pH 3.9. It counts as physicochemical. Conditions: buffer.
Data set [23] in a line: Toxicity in human N87 cells xenografted athymic mouse. It counts as organism-based, NCI-N87. The note with it: in vivo.
Data set [24] is described as follows: Tmax in BALB/c mouse at 90 mg/kg, po. Details: dose 90 mg/kg, route oral. The note with it: in vivo. The data set is classed as ADME, organism-based.
For data set [25], the system named is A2780. Briefly: Antiproliferative activity against human A2780 cells. The data set is classed as functional, cell-based.

Receptor tyrosine-protein kinase erbB-2, sequence (P04626 whole entry): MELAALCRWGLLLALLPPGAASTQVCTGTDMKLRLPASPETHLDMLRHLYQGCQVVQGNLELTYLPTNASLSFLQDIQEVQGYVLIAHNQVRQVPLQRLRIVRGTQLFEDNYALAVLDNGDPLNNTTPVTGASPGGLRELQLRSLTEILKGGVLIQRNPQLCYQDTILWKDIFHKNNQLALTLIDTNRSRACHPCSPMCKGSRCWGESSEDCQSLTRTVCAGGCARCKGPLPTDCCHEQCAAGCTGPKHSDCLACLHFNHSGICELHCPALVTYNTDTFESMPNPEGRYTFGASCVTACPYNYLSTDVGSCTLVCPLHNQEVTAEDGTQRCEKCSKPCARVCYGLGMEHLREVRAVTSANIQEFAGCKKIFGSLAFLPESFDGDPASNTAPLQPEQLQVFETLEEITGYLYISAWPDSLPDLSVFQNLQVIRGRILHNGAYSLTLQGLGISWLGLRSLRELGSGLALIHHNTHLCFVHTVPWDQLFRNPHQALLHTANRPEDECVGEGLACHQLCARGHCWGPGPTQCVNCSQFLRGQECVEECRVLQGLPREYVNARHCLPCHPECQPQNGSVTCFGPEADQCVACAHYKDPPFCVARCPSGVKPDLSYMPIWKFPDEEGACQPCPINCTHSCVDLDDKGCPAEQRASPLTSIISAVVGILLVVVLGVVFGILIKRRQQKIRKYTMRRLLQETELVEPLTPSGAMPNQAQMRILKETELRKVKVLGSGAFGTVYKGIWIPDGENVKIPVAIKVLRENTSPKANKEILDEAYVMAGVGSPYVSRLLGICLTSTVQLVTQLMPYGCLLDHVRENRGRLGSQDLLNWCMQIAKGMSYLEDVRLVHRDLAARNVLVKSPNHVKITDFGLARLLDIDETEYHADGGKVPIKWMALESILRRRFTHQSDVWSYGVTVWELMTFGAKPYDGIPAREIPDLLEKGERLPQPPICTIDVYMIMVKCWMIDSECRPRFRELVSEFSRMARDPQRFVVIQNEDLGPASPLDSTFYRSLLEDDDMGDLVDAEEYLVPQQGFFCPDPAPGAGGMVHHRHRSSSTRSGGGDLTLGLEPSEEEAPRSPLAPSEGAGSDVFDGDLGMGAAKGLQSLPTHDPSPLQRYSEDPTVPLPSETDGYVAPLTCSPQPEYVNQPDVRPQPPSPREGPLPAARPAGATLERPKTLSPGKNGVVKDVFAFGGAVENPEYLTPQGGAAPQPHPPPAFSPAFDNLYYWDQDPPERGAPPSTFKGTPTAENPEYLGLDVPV

Consider `OC1CCN(Cc2ccn3ncnc(Nc4ccc5c(cnn5Cc5cccc(F)c5)c4)c23)CC1`, for which the metabolic rate in data set [1] was 0.29 nmol/min/mg. The IC50 in data set [2] was found to be 140 nM; in [4] it was 63 nM; in [5] it was 68 nM. This compound also returned a concentration at 4 h in data set [3] of 250 nM.
For `O=C1CNCCN(Cc2ccn3ncnc(Nc4ccc5c(cnn5Cc5cccc(F)c5)c4)c23)C1`, the IC50 in [2] was 650 nM; in data set [4], 39 nM; in data set [6], more than 10000 nM; in data set [5], 780 nM.
`OCCNCc1ccn2ncnc(Nc3ccc4c(cnn4Cc4cccc(F)c4)c3)c12`: the IC50 amounted to 1950 nM in data set [2], 47 nM in [4] and 45 nM in data set [5].
Regarding `Cc1ccn2ncnc(Nc3ccc4c(cnn4Cc4cccc(F)c4)c3)c12`, the metabolic rate in data set [1] was determined as 0.14 nmol/min/mg. Further, the concentration at 4 h in data set [3] was found to be 4100 nM. The same compound displayed an IC50 in data set [6] of more than 10000 nM.
On to `CN(CCO)Cc1ccn2ncnc(Nc3ccc4c(cnn4Cc4cccc(F)c4)c3)c12`, for which the midpoint of inhibition in data set [2], the IC50, lay at 1200 nM.
For the compound `CN1CCCN(Cc2ccn3ncnc(Nc4ccc5c(cnn5Cc5cccc(F)c5)c4)c23)CC1`, in data set [1], the metabolic rate is 0.21 nmol/min/mg. Also, the IC50 is 620 nM in [2], 120 nM in data set [4], more than 7900 nM in [6] and 130 nM in data set [5]. In [3], the concentration at 4 h came out at 93 nM.
For `O[C@H]1CNCCN(Cc2ccn3ncnc(Nc4ccc5c(cnn5Cc5cccc(F)c5)c4)c23)C1`, in data set [1], the metabolic rate is 0.12 nmol/min/mg. The IC50 in [2] is 160 nM; in [4], 16 nM; in data set [6] it was more than 10000 nM; in data set [5], 26 nM. This compound showed a concentration at 4 h in data set [3] of 1510 nM.
In the case of `O=C(O)C1CCN(Cc2ccn3ncnc(Nc4ccc5c(cnn5Cc5cccc(F)c5)c4)c23)CC1`, the metabolic rate in data set [1] was found to be 0.23 nmol/min/mg. The IC50 is more than 5000 nM in data set [2], 110 nM in data set [4] and more than 10000 nM in data set [6]. This compound yielded a concentration at 4 h in data set [3] of 600 nM.
Consider `O=C1CN(Cc2ccn3ncnc(Nc4ccc5c(cnn5Cc5cccc(F)c5)c4)c23)CCN1`, for which the IC50 in data set [2] is 520 nM; in data set [4] it was 200 nM; in data set [6] it was more than 10000 nM; in data set [5], 350 nM.
Consider `COC(=O)C1CCN(Cc2ccn3ncnc(Nc4ccc5c(cnn5Cc5cccc(F)c5)c4)c23)CC1`, for which the IC50 in [2] was more than 5000 nM; in data set [4] it was more than 1000 nM; in data set [6], more than 10000 nM; in data set [5] it was 1000 nM. This compound came in with a concentration at 4 h in data set [3] of 27 nM.
As for `O[C@@H]1CNCCN(Cc2ccn3ncnc(Nc4ccc5c(cnn5Cc5cccc(F)c5)c4)c23)C1`, the metabolic rate in data set [1] was determined as 0.12 nmol/min/mg. Also, the IC50 is 950 nM in data set [2], 76 nM in data set [4], more than 10000 nM in data set [6] and 200 nM in data set [5]. In data set [3], this compound showed a concentration at 4 h of 880 nM.
In data set [3], `CC(=O)N1CCN(Cc2ccn3ncnc(Nc4ccc5c(cnn5Cc5cccc(F)c5)c4)c23)CC1` displayed a concentration at 4 h of 4100 nM. For the same compound, the IC50 in [4] amounted to 610 nM; in data set [5] it was 710 nM.
For `CS(=O)(=O)N1CCCN(Cc2ccn3ncnc(Nc4ccc5c(cnn5Cc5cccc(F)c5)c4)c23)CC1`, the concentration for half-maximal inhibition (IC50) in data set [2] was 330 nM; in [4], 120 nM; in data set [6], more than 10000 nM; in [5], 210 nM.
On to `CN1CCN(Cc2ccn3ncnc(Nc4ccc5c(cnn5Cc5cccc(F)c5)c4)c23)CC1`, for which the IC50 in [2] is 490 nM; in data set [4], 120 nM; in data set [5] it was 170 nM. In [3], this compound registered a concentration at 4 h of 480 nM.
For the compound `Fc1cccc(Cn2ncc3cc(Nc4ncnn5ccc(CN6CCCNCC6)c45)ccc32)c1`, the metabolic rate in data set [1] was 0.05 nmol/min/mg. For the same compound, the Vd in data set [7] was 9.5 L/kg. This compound also gave a half-life in data set [8] of 3.7 h. Moreover, the MRT in data set [9] came out at 4 h. The Cmax in data set [10] stood at 7950 nM. The mortality in data set [11] is 12%. Moreover, the inhibition in vivo at 90 mg/kg in data set [12] worked out at 97%; in data set [20] it was 90%. The inhibition in vivo at 135 mg/kg came out at 78% in [13] and 111% in data set [21]. For the same compound, the AUC in data set [14] was determined as 48.9 µM·h. The Solubility in [15] amounted to 0.012 mg/kg; in data set [22], 9.7 mg/kg. The compound further returned a concentration at 4 h in data set [3] of 1300 nM. Also, the inhibition in vivo at 180 mg/kg in data set [16] turned out to be 121%. For the same compound, the IC50 in [4] was 27 nM; in data set [6] it was more than 3600 nM; in [5], 33 nM. Also, the bioavailability in data set [17] was determined as 77%. In addition, in [18], the clearance was found to be 39 mL/min/kg. This compound displayed a PB in [19] of 98.4%. In addition, in [23], the MTD is 180 mg/kg. For the same compound, the Tmax in data set [24] was determined as 3 h.
For `NC(=O)C1CCN(Cc2ccn3ncnc(Nc4ccc5c(cnn5Cc5cccc(F)c5)c4)c23)CC1`, the IC50 was 400 nM in [2], 310 nM in data set [4] and 140 nM in data set [5].
Regarding `Fc1cccc(Cn2ncc3cc(Nc4ncnn5ccc(CN6CCNCC6)c45)ccc32)c1`, the metabolic rate in data set [1] stood at 0 nmol/min/mg. In addition, the IC50 in data set [2] was 730 nM; in data set [4], 81 nM; in [5], 90 nM. The concentration at 4 h in data set [3] turned out to be 6300 nM.
Turning to `O=C1CCN(Cc2ccn3ncnc(Nc4ccc5c(cnn5Cc5cccc(F)c5)c4)c23)CCN1`, the metabolic rate in [1] is 0.27 nmol/min/mg. Also, the IC50 is 200 nM in data set [2], 750 nM in [4], more than 10000 nM in data set [6] and 240 nM in [5]. The compound also returned a concentration at 4 h in data set [3] of 44 nM.
`Fc1cccc(Cn2ncc3cc(Nc4ncnn5ccc(CN6CCCC6)c45)ccc32)c1`: the IC50 in data set [4] turned out to be 360 nM; in [5], 500 nM.
With `COC1CNCCN(Cc2ccn3ncnc(Nc4ccc5c(cnn5Cc5cccc(F)c5)c4)c23)C1` (configuration not stated), the IC50 was 3700 nM in data set [2], 170 nM in [4], more than 5000 nM in data set [25] and 190 nM in data set [5].
Turning to `CC1CNCCN(Cc2ccn3ncnc(Nc4ccc5c(cnn5Cc5cccc(F)c5)c4)c23)C1` (configuration not stated), the metabolic rate in data set [1] came to 0 nmol/min/mg. The IC50 in data set [2] was 680 nM; in data set [4], 74 nM; in data set [25], more than 2100 nM; in data set [5] it was 130 nM.

One may read the IC50 as the concentration at which inhibition is half-maximal. For orientation: half-life means the time in which the quantity being followed falls by half. Lower therefore signals rapid decline. A word on the MRT: it is the average time that molecules of a dose stay in the body. Broadly, the Cmax is the peak of the concentration-time curve. By AUC is commonly meant concentration integrated over time. High values mean more exposure, low ones less exposure. As a reminder, the bioavailability is dose-corrected exposure relative to a reference, in per cent. As usually defined, the clearance is the rate of elimination divided by the concentration. Low readings indicate inefficient removal, high ones efficient removal. As usually defined, the Tmax is the time from dosing to the highest level.
